Reference: US20110104145A1, “METHOD FOR THE TREATMENT OR PROPHYLAXIS OF CHRONIC INFLAMMATORY DISEASES” (priority 2008, published 2011)

How the values were obtained:
[1] = system: polymorphonuclear cells; assay: Chemotaxis assay with supernatants of IgA-bead migration experiments; format: cell-based, human; details: mAb 100 μg/ml; U75302 10 μM in ethanol; 40 minutes at 37° C.
Description: B) Supernatant was collected after addition of IgA-beads, and migration of freshly isolated polymorphonuclear cells to collected supernatant was measured in the presence of anti-BLTR1 (LTB4 receptor), anti-IL-8 or an isotype mAb control. Additionally, either an LTB4 receptor antagonist (U75302 in ethanol) or ethanol alone was added. Migration to supernatant in the absence of inhibitors was set at 100%.
Chemotaxis assays were essentially performed as described (Frevert et al., J. Immunol. Methods 213, 41 (1998)), modified for use in a 48 well Neuroprobe blind well chemotaxis chamber (Gaithersburg, Md.). Briefly, bottom wells were filled with supernatants of migration experiments (25 μl), and covered with a 3 μm pore polycarbonate filter (Neuroprobe). Purified LTB4 (Sigma) or IL-8 (Peprotech, Rocky Hill, N.J.) were used as positive controls. Top wells were filled with 50 μl calcein AM-labeled polymorphonuclear cells (1×10^6/ml). After a 40 minutes incubation period at 37° C., cells that had migrated towards the lower compartments were quantified with a fluorimeter (485 excitation/520 emission filters). To inhibit IL-8 mediated migration, experiments were conducted in the presence of 100 μg/ml blocking anti-IL-8 mAb (BD Biosciences). LTB4-mediated migration was investigated by blocking LTB4 receptors with 100 μg/ml anti-BLTR1 mAb (BD Biosciences). […]

[2] = system: binding between IgA and CD89; assay: Blocking assay: two-dimensional polymorphonuclear cell migration to IgA-coated beads; format: cell-based, human; details: for blocking of the IgA-CD89 interaction / reduction of polymorphonuclear cell migration to IgA-beads (in words): polymorphonuclear cells; for blocking of the interaction between IgA and CD89: PKH67-polymorphonuclear cells, blocker 1-100 μg/ml, 20' at 37° C., assay of example 4
Description: FIG. 6. IgA-induced migration can be reduced by interfering with IgA-CD89 interactions. Percentage inhibition of polymorphonuclear cell migration in the presence of 3 different anti-FcαRI mAb (white bars), 6 peptides that mimic either the IgA binding site on CD89 or the CD89 binding site on IgA (black bars) or a soluble variant of CD89 or FcαRI (sFcalphaRI, grey bar).
PKH67-polymorphonuclear cells (2.5×10^5 cells/well) were seeded in 96 wells flat bottom plates (Greiner), after which immunoglobulin-coated beads (10 μl/well) were added. For binding assays, cells were kept at 4° C. For migration assays, cells were incubated for 20′ 37° C., after which cell suspensions were collected and beads were washed 2 times with PBS to remove unbound PKH67-polymorphonuclear cells. Beads were incubated with a buffer containing 2.0 g/l hexadecyltrimethyl ammonium bromide, 1.0 g/l tween 20, 2.0 g/l BSA and 7.44 g/l EDTA in PBS to lyse bound PKH67-polymorphonuclear cells. Fluorescence was measured using 485 excitation and 520 emission filters (Fluostar Galaxy, BMG Labtechnologies, Offenburg, Germany).
The blocking potential of anti-FcαRI antibodies and/or sFcαRI and/or peptides that mimic either the IgA binding site on CD89 or the CD89 binding site on IgA was investigated using a 2-dimensional polymorphonuclear cells migration assay as detailed in example 4. For that purpose, PKH67-polymorphonuclear cells were incubated with different concentrations (ranging from 1-100 μg/ml in RPMI) of either anti-FcαRI blocking antibodies or with peptides mimicking the IgA binding site on CD89 for 20 minutes at 37° C. IgA-coated beads were incubated with different concentrations (ranging from 1-100 μg/ml in RPMI) of peptides mimicking the CD89 binding site on IgA for 20 minutes at 37° C. PKH67-polymorphonuclear cells (2.5×10^5 cells/well) that had not been incubated (as control) or PKH67-polymorphonuclear cells that had been incubated with blocking antibodies or peptides were seeded in 96 wells flat bottom plates (Greiner). Either non-incubated IgA-coated beads, or IgA-coated beads that had been incubated with peptides were added (10 μl/well). Cells were then incubated for 20′ at 37° C., after which cell suspensions were collected and beads were washed 2 times with PBS to remove unbound PKH67-polymorphonuclear cells. Beads were incubated with a buffer containing 2.0 g/l hexadecyltrimethyl ammonium bromide, 1.0 g/l Tween 20, 2.0 g/l BSA and 7.44 g/l EDTA in PBS to lyse bound PKH67-polymorphonuclear cells. Fluorescence was measured using 485 excitation and 520 emission filters (Fluostar Galaxy, BMG Labtechnologies, Offenburg, Germany) to determine the number of polymorphonuclear cells that had bound to IgA-coated beads. Percentage blocking was determined using the following equation: 100−(number of bound cells in blocking situation/number of bound cells without blocking×100) %.

[3] = system: polymorphonuclear cells; assay: Human skin migration assay (ex vivo skin graft, IgA-coated beads); format: cell-based; details: ex vivo mammary skin graft, beads injected intracutaneously, overnight at 37° C.
Description: A full thickness mammary skin graft (epidermis and dermis) was placed in an ex-vivo tissue incubation chamber (method adapted from Oosterling, S J et al. Ann Surg. 2008; 247(1):85-94). 5 μl of IgA- or BSA-coated beads (17.5 μg/μl) were injected intracutaneously via the dermis, followed by addition of PKH-67 labeled polymorphonuclear cells (4×10^6 cells/well) to the wells. Due to the short half-life of polymorphonuclear cells after isolation, cells were supplemented with IFN-γ (300 units/ml; Boehringer Ingelheim, Alkmaar, The Netherlands). Skin was incubated overnight at 37° C. Biopsies of the injected skin were taken and snap frozen. Sections of biopsies were analysed with bright field and fluorescence microscopy.

| Compound | blocking of the IgA-CD89 interaction / reduction of polymorphonuclear cell migration to IgA-beads (in words) [2] | further results |
| --- | --- | --- |
| CCCCC/C=C\C[C@@H](O)/C=C/c1cccc(C[C@@H](O)CCCCO)n1 [receptor antagonist, U75302] | – | chemotactic activity of supernatant of IgA-bead migration experiments [1]: reduced |
| AQAIREAYL | performed well | – |
| EDLLLGSEA [IgA CH2] | – | blocking of the interaction between IgA and CD89 [2]: up to 23% |
| GRYQAQYRIGHYRFRYSD [PEO-50#8,9, EF loop peptide (CD89 75-92)] | – | migration of polymorphonuclear cells to IgA-coated beads in human skin [3]: completely prevent migration |
| GRYQCQYRIGHYRFRYSD [Sym-060] | performed somewhat less but was still found useful | – |
| LKFWNETDP | performed well | – |
| REIGRRLKFWNETDP [Fc alpha 113] | – | blocking of the interaction between IgA and CD89 [2]: up to 19% |
| SCMVGHEALPLAFTQCT [PEO-46#7,8] | provided good results | – |
| SSMVGHEALPLAFTQKT [PEO-45#7,8, 17-mer stretch (amino acids 431-447) selected from the Fc region of IgA] | – | migration of polymorphonuclear cells to IgA-coated beads in human skin [3]: completely prevent migration |
| YRIGHYRFR | performed well | – |
| sFcαRI: soluble form of FcαRI: extracellular part (ecto domain) of FcαRI expressed in 293T cells | efficiently block the interaction | migration of polymorphonuclear cells to IgA-coated beads in human skin [3]: completely prevent migration |
